Results: patent US11360104B2, “Microbial-based biosensors” (TRUSTEES OF BOSTON UNIVERSITY, priority 2017, dated 2022)

Key:
[1] = test system: steroid responsive genome island (SRGI); assay: Whole transcriptome RNA-Seq of steroid treated P. simplex; assay type: cell-based, Pimelobacter simplex; details: P. simplex exposed to steroid vs solvent control, Log2 fold change
Text: (§1) In order to identify steroid binding Transcription Factors, a whole transcriptome RNA sequencing (RNA-Seq) screen was developed (FIG. 7). The growth of Pimelobacter simplex bacteria was profiled with respect to the starting inoculation density, solvent toxicity, and the addition of steroids (FIG. 16). […] P. simplex bacteria were screened against the steroid solvents ethanol (EtOH) and dimethyl sulfoxide (DMSO). […] Steroid growth curves were similarly performed using a starting OD of 0.005 and constant solvent dosing with titrations of steroids. […] P. simplex bacteria were grown in the presence of 700 μM testosterone, 21.88 μM progesterone, 87.50 μM estrone, 21.88 μM 17β-estradiol, 21.88 μM hydrocortisone, or 175.00 μM aldosterone concentrations were selected for comparison.
Using accession gene tags, genes were annotated for steroid relevant enzymes or transcription factors. […] Allosteric TF binding sequences are often palindromes and typically located near the start of its gene location in an intergenic space. With such a design, the allosteric TF can regulate itself or the open reading frame (ORF) near it in response to its effector molecule. […] Once identified, the TFs were cloned and recombinantly expressed for thorough characterization.
Cells were grown in 6 mL volumes of media at the OD, solvent, and steroid concentrations found from the growth curves in 14 mL polypropylene round-bottom tubes (Corning #352059) in technical duplicate. The same controls as in the steroid exposure growth curve were used for setting up RNA extraction samples. The cells were incubated at their corresponding temperature with continuous orbital shaking at 150 rpm until the end of lag-phase, mid-log phase, or stationary phase from the start of inoculation. Afterward, samples were removed and a 1:1 ratio of RNAprotect Bacteria Reagent (Qiagen #76506) was added followed by spinning down at 4° C. for 10 minutes at 4000 g. Supernatant was removed and the pellet re-suspended in 300 μL of RNAprotect and transferred into 2.0 mL Safe-Lock Tubes (Eppendorf #3101). The samples were then spun down once again at 4° C. for 10 minutes at 10000 g. Once the supernatant has been removed the samples were placed on ice and ready for RNA extraction. RNA extraction was done by Qiacube (Qiagen #9001292) set to the RNeasy Protect Bacteria Mini Kit protocol of bacterial cell pellet with enzymatic lysis. Tube A was prepared as described except with the addition of 150 mg/mL lysozyme (Sigma-Aldrich #L6876) and 20 mg/mL proteinase K (Roche #03115879001) all diluted in 1xTE buffer. RNA samples were subsequently quantified using Qubit RNA HS Assay Kit (Thermo Fisher Scientific #Q32852) and analyzed using a RNA 6000 Pico Kit (Agilent 5067-1513) in a 2100 Bioanalyzer (Agilent G2939A). RNA samples were either immediately used for RNA-Seq library preparation or stored long-term at −80° C.
RNA-Seq libraries were then produced from these samples using a slightly modified ScriptSeq v2 RNA-Seq Library Preparation Kit (Illumina 455A/22124) ensuring use of unique index primers through ScriptSeq Index PCR Primers (Sets 1-4) 48 rxns/set (Illumina #SSIP1234).

[2] = test system: Pimelobacter simplex; assay: Solvent and steroid exposure growth curves; details: P. simplex, starting OD 0.005, constant solvent
Text: as §1
In order to properly determine the doubling time of the strain, growth curves were performed. All growth curves were done in 100 μL per well volumes in 96 well flat clear bottom black polystyrene TC-treated microplates which were individually wrapped with a lid and sterile (Corning #3603). Measurements were done by an Infinite M200 Pro (TECAN) spectrophotometer at the temperature suited for P. simplex. Readings were performed over 96 cycles of 15 minutes each at 600 nm absorbance with 25 flashes in a 3×3 (XY-Line) type reads per well. In between reads there was orbital shaking at 150 rpm frequency for a total of 10 minutes. In order to characterize the growth alone, a ½ serial dilution of 9 concentrations from 0.5-0.0020 OD600 nm were prepared in the respective media. Then each concentration was measured as previously described using a microplate reader (TECAN) and normalized against a media background control in technical triplicate. Afterward, an appropriate starting concentration of cells was chosen with a substantially long lag-phase, linear log phase, and a plateau of stationary-phase.
Once an appropriate starting cell concentration was chosen, a secondary growth curve was performed to test the toxicity levels of the solvents used to dissolve steroids of interest. Since the steroids used are heavily hydrophobic, they often need to be dissolved in organic solvents such as DMSO or ethanol which are toxic to bacteria at high concentrations. P. simplex was incubated under microplate reader conditions previously mentioned at a starting OD determined by the first growth curve with DMSO, ethanol, or H2O at ½ serial dilutions for a total of eight concentrations (50-0.39%) tested in technical triplicate. Two controls were included per solvent; a positive control without solvent and a media control which allowed for appropriate normalization. Solvent exposure growth curves allowed for choosing the maximum amount of solvent concentration that strains would sustain while maintaining relative viability in order to determine a range of steroid concentrations which could be used.
A tertiary growth curve was performed to test the toxicity levels of steroid specific to P. simplex. The strain was incubated under microplate reader conditions previously mentioned at a starting OD determined by the first growth curve and the highest solvent concentration corresponding to the steroid of interest with steroid at ½ serial dilutions for a total of seven concentrations tested in singlet. Testosterone, progesterone, 17β-estradiol, hydrocortisone, and aldosterone were all dissolved in ethanol while estrone was dissolved in DMSO. Three controls were included for each steroid; a positive control with the highest tolerable solvent concentration (%), a positive control with media, and a media control which allowed for normalization. Steroid exposure growth curves allowed for choosing the maximum amount of steroid concentration that P. simplex would sustain while maintaining relative viability.

[3] = target: PinR (Nocardioides simplex (Pimelobacter simplex), UniProt A0A0A1DUF2); assay: Cross-reactivity assay of steroids using sensor 3; assay type: biochemical
Sequence of PinR (A0A0A1DUF2 entry or part of it): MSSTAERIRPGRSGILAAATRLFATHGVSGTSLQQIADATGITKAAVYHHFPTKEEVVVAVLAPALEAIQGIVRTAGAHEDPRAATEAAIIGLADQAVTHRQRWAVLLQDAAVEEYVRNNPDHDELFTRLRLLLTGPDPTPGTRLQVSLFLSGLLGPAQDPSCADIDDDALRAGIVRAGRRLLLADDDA
Method: The cross-reactivity of progesterone regarding the different steroids was calculated with the following equation:
Description for a typical experiment, using a molar ratio of QD/TF/DNA=1/4/18.
50 uL of the sensor (QD/TF/DNA) was then splitted in 3×9 centrifuge tubes to which 10 uL of progesterone at the desired concentration is added. […] A 384 well plate was filled with 60 uL of each solution. The fluorescence intensity was monitored on a spectrofluorimeter from 535 nm to 800 nm exciting at 400 nm, equipped with a 450 nm long-pass filter in emission.

With CC(=O)[C@H]1CC[C@H]2[C@@H]3CCC4=CC(=O)CC[C@]4(C)[C@H]3CC[C@]12C [PRG, Progesterone] the “upregulation of genes inside the SRGI” value [1] was “observed”, the “highest steroid concentration exhibiting normal growth profile” value [2] was 21.88 µM and the IC50 [3] was 59 ± 4 nM. For the same compound, the “P (slope of fit)” value ([3]; sensor 3, HEPES 1×) was 1.31 ± 0.10.
